The assay deals with carrageenin-induced inflammatory nociception in the hind paw. The assay is described as follows: Inflammatory nociception induced by carrageenin (von Frey filament). It is filed as in vivo. The note with it: mice, carrageenin 300 μg per paw intraplantar; alpha-humulene 50 mg/kg orally or paracetamol 600 mg/kg orally, 1 h before; evaluated after 3, 4 and 6 hours. The protocol: The evaluation methodology used in this test is described by Vaz et al. in J. Pharmacol. Exp. Ther. 278:304-312, 1996. Male mice (25-35 g) were systemically (orally) treated with alpha-humulene, 50 mg/kg, administered 1 hour before the experiment. Animals treated with 0.9% saline solution (0.1 ml/10 g) were used as the control. Another group of animals was treated with paracetamol (600 mg/kg, orally, administered 1 h before the treatment), that was used as positive control. For the induction of inflammatory pain, the animals received an intraplantar injection of 0.05 ml of carrageenin (300 μg per paw) at the plantar surface of the right hind paw. […] The nociception was evaluated with a Von Frey filament (0.4 g) after 3, 4 and 6 hours. […] The filament was applied to the right hind paw, complying with the criteria of (1) the application was perpendicular to the plantar surface, with enough pressure to cause the filament to bend, thus obtaining total pressure; (2) the animals were evaluated when the four paws were touching the screen; (3) the paw withdrawal response was considered when the animal removed the paw entirely from the support screen; (4) each animal was stimulated 10 consecutive times, each stimulation lasting 1 second; (5) each paw withdrawal event was considered as 10% of the response, with 10 withdrawal events corresponding to 100% response. […]
On the technique in general: Carrageenan injected into the paw causes an acute inflammation.

On to `CC(=O)Nc1ccc(O)cc1` [paracetamol, reference compound], for which the “inflammatory nociception (paw withdrawal response to 0.4 g von Frey filament)” value was “reduced the inflammatory nociception”.
